Measurements taken from PubChem BioAssay AID330 (DTP/NCI, 2004).
Values joined by “and” are separate entries in the source; they are usually repeats but may differ in a detail not shown here. Identical values can stand only once. Toxic doses and inconclusive results are not listed. How the source made its calls: active means survival T/C of 150% or more; inactive means T/C below 125% in these data.

Test system: P388 leukemia ip, CD2F1 mice, survival T/C
Test: NCI In Vivo Anticancer Drug Screen. Data for tumor model P388 Leukemia (intraperitoneal) in CD2F1 (CDF1) mice
Details: endpoint: median survival time, higher = longer survival
Outline: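 Mice carrying the transplanted tumor received test compound or vehicle. Survival was recorded in each group, and the value is the treated-group measurement divided by that of the vehicle-treated control group.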

[1] = dose: 60.0 mg/kg/injection, schedule: Q01DX005 (ip), vehicle: saline with Tween-80
[2] = dose: 120.0 mg/kg/injection, schedule: Q01DX005 (ip), vehicle: saline with Tween-80
[3] = dose: 240.0 mg/kg/injection, schedule: Q01DX005 (ip), vehicle: saline with Tween-80
[4] = dose: 50.0 mg/kg/injection, schedule: Q01DX005 (ip), vehicle: Klucel (hydroxypropylcellulose) (HPC)
[5] = dose: 100.0 mg/kg/injection, schedule: Q01DX005 (ip), vehicle: Klucel (hydroxypropylcellulose) (HPC)
[6] = dose: 50.0 mg/kg/injection, schedule: Q01DX009 (ip), vehicle: saline with Tween-80
[7] = dose: 100.0 mg/kg/injection, schedule: Q01DX009 (ip), vehicle: saline with Tween-80
[8] = dose: 25.0 mg/kg/injection, schedule: Q01DX009 (ip), vehicle: saline with Tween-80
[9] = dose: 200.0 mg/kg/injection, schedule: Q01DX005 (ip), vehicle: Klucel (hydroxypropylcellulose) (HPC)
[10] = dose: 50.0 mg/kg/injection, schedule: Q01DX005 (ip), vehicle: saline with Tween-80
[11] = dose: 100.0 mg/kg/injection, schedule: Q01DX005 (ip), vehicle: saline with Tween-80
[12] = dose: 50.0 mg/kg/injection, schedule: Q01DX009 (ip), vehicle: saline
[13] = dose: 100.0 mg/kg/injection, schedule: Q01DX009 (ip), vehicle: saline
[14] = dose: 200.0 mg/kg/injection, schedule: Q01DX009 (ip), vehicle: saline
[15] = dose: 200.0 mg/kg/injection, schedule: Q01DX005 (ip), vehicle: saline with Tween-80
[16] = dose: 100.0 mg/kg/injection, schedule: Q01DX001 (ip), vehicle: Klucel (hydroxypropylcellulose) (HPC)
[17] = dose: 200.0 mg/kg/injection, schedule: Q01DX001 (ip), vehicle: Klucel (hydroxypropylcellulose) (HPC)
[18] = dose: 200.0 mg/kg/injection, schedule: Q01DX009 (ip), vehicle: saline with Tween-80
[19] = dose: 100.0 mg/kg/injection, schedule: Q04DX003 (ip), vehicle: saline with Tween-80
[20] = dose: 200.0 mg/kg/injection, schedule: Q04DX003 (ip), vehicle: saline with Tween-80
[21] = dose: 50.0 mg/kg/injection, schedule: Q01DX009 (ip), vehicle: Klucel (hydroxypropylcellulose) (HPC)
[22] = dose: 100.0 mg/kg/injection, schedule: Q01DX009 (ip), vehicle: Klucel (hydroxypropylcellulose) (HPC)
[23] = dose: 200.0 mg/kg/injection, schedule: Q01DX009 (ip), vehicle: Klucel (hydroxypropylcellulose) (HPC)
[24] = dose: 60.0 mg/kg/injection, schedule: Q01DX005 (ip), vehicle: Klucel (hydroxypropylcellulose) (HPC)

Measured: T/C

c1ccc(-c2nc3cccnc3s2)cc1
inactive: [1] 101 % of control | [2] 101 % of control | [3] 104 % of control

C=C(Cl)CC(N)C(=O)O (configuration not stated)
inactive: [4] 104 % of control | [5] 104 % of control

CCOc1nc(N)nc(C)c1N=Nc1ccc(Cl)cc1Cl
inactive: dose: 60.0 mg/kg/injection, schedule: Q01DX005 (ip), vehicle: Klucel + Tween-80 100 % of control | dose: 120.0 mg/kg/injection, schedule: Q01DX005 (ip), vehicle: Klucel + Tween-80 110 % of control

Cc1cc2ccccc2c2nncn12
inactive: [6] 103 % of control | [7] 103 % of control

CSCc1cccc(Cl)c1N
inactive: [8] 102 % of control | [6] 106 % of control | [7] 106 % of control

c1ccc(C2=N[C@@H](N3CCCCC3)[C@H](N3CCCCC3)N2c2ccccc2)cc1
inactive: [4] 105 % of control | [5] 100 % of control | [9] 98 % of control

NC(=N/C(=C/c1ccccc1)c1ccccc1)c1ccccc1
inactive: [10] 92 % of control | [11] 102 % of control

CCCCCCCCOC(=O)NCCCCC(N)C(=O)O (configuration not stated)
inactive: [12] 87 % of control | [13] 101 % of control | [14] 103 % of control

CC1(c2ccccc2)COC(=O)O/C1=N/OCc1ccccc1 (configuration not stated)
inactive: [10] 100 % of control | [11] 107 % of control | [15] 99 % of control

CN(C)CN1C(=O)S/C(=C2\C(=O)N(C)c3ccc(Br)cc32)C1=O
inactive: [16] 101 % of control | [17] 95 % of control | dose: 400.0 mg/kg/injection, schedule: Q01DX001 (ip), vehicle: Klucel (hydroxypropylcellulose) (HPC) 97 % of control

O=C1CN(c2ccccc2)C(=O)CN1/N=C/c1ccc(Cl)cc1
inactive: [6] 91 % of control | [7] 99 % of control | [18] 102 % of control

O=C(O)C1CSC2(CCCC2)N1 (configuration not stated)
inactive: dose: 100.0 mg/kg/injection, schedule: Q04DX003 (ip), vehicle: saline 101 % of control | dose: 200.0 mg/kg/injection, schedule: Q04DX003 (ip), vehicle: saline 98 % of control | dose: 400.0 mg/kg/injection, schedule: Q04DX003 (ip), vehicle: saline 98 % of control

O=C(Nc1ccccc1)N1CC2(CN1)CNN(C(=O)Nc1ccccc1)C2
inactive: dose: 50.0 mg/kg/injection, schedule: Q01DX001 (ip), vehicle: Klucel (hydroxypropylcellulose) (HPC) 103 % of control | [16] 100 % of control | [17] 91 % of control

O=C(Cc1ccc(OCc2ccccc2)cc1)OCc1ccco1
inactive: [6] 109 % of control | [7] 100 % of control | [18] 100 % of control

OC(COc1c2ccccc2nc2ccccc12)COc1c2ccccc2nc2ccccc12
inactive: [1] 104 % of control | [2] 101 % of control | [3] 101 % of control

COC(=O)C(CSCc1ccccc1)NC(=O)c1csc(CCNC(=O)c2ccccc2)n1 (configuration not stated)
inactive: dose: 12.5 mg/kg/injection, schedule: Q01DX009 (ip), vehicle: DMSO 99 % of control | dose: 25.0 mg/kg/injection, schedule: Q01DX009 (ip), vehicle: DMSO 99 % of control | dose: 50.0 mg/kg/injection, schedule: Q01DX009 (ip), vehicle: DMSO 100 % of control | dose: 100.0 mg/kg/injection, schedule: Q01DX009 (ip), vehicle: DMSO 101 % of control | dose: 200.0 mg/kg/injection, schedule: Q01DX009 (ip), vehicle: DMSO 96 % of control

COc1ccc(C2=C(c3ccccc3)C(=O)C3(c4ccccc4)CC23c2ccc(OC)cc2)cc1 (configuration not stated)
inactive: [4] 97 % of control | [5] 89 % of control | [9] 92 % of control

COC(=O)c1csc(-c2ccc(CO)o2)n1
inactive: [10] 105 % of control | [11] 98 % of control | [15] 93 % of control

CC(C)(C)SC(=O)C[Si](C)(C)C
inactive: dose: 50.0 mg/kg/injection, schedule: Q04DX003 (ip), vehicle: saline with Tween-80 103 % of control and 105 % of control | [19] 107 % of control and 94 % of control | [20] 111 % of control and 118 % of control | dose: 400.0 mg/kg/injection, schedule: Q04DX003 (ip), vehicle: saline with Tween-80 110 % of control

CCCCCC(=O)NCC(=O)OC
inactive: dose: 50.0 mg/kg/injection, schedule: Q01DX005 (ip), vehicle: saline 100 % of control | dose: 100.0 mg/kg/injection, schedule: Q01DX005 (ip), vehicle: saline 101 % of control | dose: 200.0 mg/kg/injection, schedule: Q01DX005 (ip), vehicle: saline 100 % of control

S=c1[nH][nH]c(=S)s1
inactive: dose: 25.0 mg/kg/injection, schedule: Q01DX009 (ip), vehicle: Klucel (hydroxypropylcellulose) (HPC) 95 % of control | [21] 95 % of control

CC(C)N1CC(CCN2CCOCC2)C(c2ccccc2)(C2CCCC2)C1=O (configuration not stated)
inactive: [21] 106 % of control | [22] 101 % of control | [23] 108 % of control

Cc1cc(C)c2c(=O)c3c(oc2c1)O[C@@](C)(CO)C[C@@H]3c1ccccc1
inactive: [1] 101 % of control | [2] 98 % of control | [3] 106 % of control

CS(=O)(=O)N1COC(=O)[C@@H]1c1ccccc1
inactive: [1] 100 % of control | [2] 101 % of control | [3] 101 % of control

CC1CC(=O)c2c(CO)nn(CCCO)c2C1 (configuration not stated)
inactive: dose: 15.0 mg/kg/injection, schedule: Q01DX005 (ip), vehicle: Klucel (hydroxypropylcellulose) (HPC) 101 % of control | dose: 30.0 mg/kg/injection, schedule: Q01DX005 (ip), vehicle: Klucel (hydroxypropylcellulose) (HPC) 102 % of control | [24] 101 % of control | dose: 60.0 mg/kg/injection, schedule: Q01DX005 (ip), vehicle: saline 101 % of control

Cc1ccc(C)c(NC(=O)Nc2ccc(CCO)cc2)c1
inactive: [21] 102 % of control | [22] 102 % of control | [23] 99 % of control

Cc1ccc(S(=O)(=O)N/N=C/c2cc(I)cc(I)c2O)cc1
inactive: [10] 98 % of control | [11] 100 % of control | [15] 100 % of control

C/C(=N\O)c1ccc2ccccc2c1
inactive: [12] 101 % of control | [13] 113 % of control | [14] 102 % of control

c1ccc(-c2ccc(NCCN3CCOCC3)nn2)cc1
inactive: [24] 100 % of control | dose: 120.0 mg/kg/injection, schedule: Q01DX005 (ip), vehicle: Klucel (hydroxypropylcellulose) (HPC) 105 % of control

CC(=O)N(O)c1ccc(Cl)cc1
inactive: dose: 25.0 mg/kg/injection, schedule: Q04DX002 (ip), vehicle: saline with Tween-80 100 % of control | dose: 50.0 mg/kg/injection, schedule: Q04DX002 (ip), vehicle: saline with Tween-80 102 % of control | dose: 100.0 mg/kg/injection, schedule: Q04DX002 (ip), vehicle: saline with Tween-80 100 % of control | dose: 200.0 mg/kg/injection, schedule: Q04DX002 (ip), vehicle: saline with Tween-80 105 % of control

O=C1OC2(CCCCC2)OC(=O)C1=Cc1ccc([N+](=O)[O-])s1
inactive: [19] 114 % of control | [20] 105 % of control

CCCCCCCCCCC[N+](C)([O-])CCCCCC[N+](C)([O-])CCCCCCCCCCC (configuration not stated)
inactive: dose: 12.5 mg/kg/injection, schedule: Q01DX009 (ip), vehicle: saline with Tween-80 100 % of control | [8] 100 % of control | [6] 102 % of control and 96 % of control

O=C(c1ccccc1)c1cc(Cl)ccc1NCC(O)COc1cccc2ccccc12 (configuration not stated)
inactive: [1] 100 % of control | [2] 91 % of control | [3] 88 % of control

CC1=C2C(=CC(C)(CO)C2O)C(O)C(C)(O)C12CC2 (configuration not stated)
inactive: dose: 0.78 mg/kg/injection, schedule: Q01DX009 (ip), vehicle: water 100 % of control | dose: 1.56 mg/kg/injection, schedule: Q01DX009 (ip), vehicle: water 114 % of control | dose: 3.13 mg/kg/injection, schedule: Q01DX009 (ip), vehicle: water 105 % of control | dose: 6.25 mg/kg/injection, schedule: Q01DX009 (ip), vehicle: water 112 % of control | dose: 12.5 mg/kg/injection, schedule: Q01DX009 (ip), vehicle: water 118 % of control
